This is an account of results in patent US9000135B2, “Self-reactive arms and prodrugs comprising same” (Centre Nationale de Recherche Scientifique, priority 2010, dated 2015).

Format in all cases: cell-based
Experiment [1] has as its system HeLa cells, expressing the folic acid receptor (FR). The experiment in a line: Internalization monitored by confocal microscopy (doxorubicin fluorescence) in HeLa cells. The following applies: 10 μM. As to the method:
(§1) Compound (7) was tested on two cell lines, the HeLa cells, expressing the folic acid receptor (FR), and the A549 cells expressing little or none of these receptors.
(§2) The HeLa and A549 cells were cultured in RPMI 1640 medium supplemented with 10% fetal calf serum (InVitrogen) at 37° C. in an atmosphere containing 5% CO2.
(§3) For confocal microscopy experiments, the cells were cultured in a glass-bottomed bowl.
(§4) The cells were incubated for 1 hour in the presence or absence of 1 μm of folic acid before being treated with either a buffer solution (control), or doxorubicin at 10 μM, or with a doxorubicin-galactose (DOX-GAL) conjugate, compound (5), in a concentration of 10 μM, or compound (7) (DOX-GAL-AF) in a concentration of 10 μM, or compound (7) in the presence of folic acid with respective concentrations of 10 μM.
(§5) After treatment, the cells were rinsed with PBS and fixed with a PBS-3.7% formaldehyde solution for 20 minutes, at room temperature. […]
(§6) The internalization by endocytosis of doxorobucin of the compounds (5) and (7) and of compound (7) in the presence of folic acid (AF) was monitored by confocal microscopy using the fluorescence of doxorubicin in the Hela cells and in the A549 cells.

A further experiment concerns A549 cells. The experiment in a line: Proliferation test (XTT) on A549 cells. The following applies: 0 to 1000 nM, 4 days. The protocol:
(§7) In order to check that the endocytosis of compound (7) DOX-GAL-AF is followed by release of the drug in the intracellular medium, proliferation tests were performed on Hela and A549 cells incubated in the presence of increasing concentrations (0 to 1000 nM) of doxorubicin (DOX), compound (5) (DOX-GAL) and compound (7) (DOX-GAL-AF) for 4 days.
(§8) The cell proliferation kit II (XTT; Roche) was used to evaluate the cellular proliferation. The kit was used following the manufacturer's recommendations.
(§9) In brief, 3×10^3 cells/well were placed on 96 culture plates and then in 100 μl of medium,
(§10) The cells were cultured as previously indicated.
(§11) The cells were cultured for 24 hours before addition of the compounds tested in the indicated concentration.
(§12) After 4 days of treatment, 50 μl of XTT marking mixture were added to the well. The cells were then incubated for 4 hours at 37° C. before the absorbance was determined at 480 nm.
(§13) In order to check that the enzymatic activation of compound (7) DOX-GAF-AF can effectively take place in the cellular environment, cytotoxicity tests were repeated in a culture medium previously supplemented with β-galactosidase (E. coli) (40 U·mL^−1) (curves in dotted lines).

In experiment [2] the test system is A549 cells expressing little or none of these receptors. Kind of experiment: Internalization monitored by confocal microscopy (doxorubicin fluorescence) in A549 cells. Conditions: 10 μM. The protocol: as §1, §2, §3, §4, §5, §6
For the next experiment, the system named is Hela cells. Kind of experiment: Proliferation test (XTT) on Hela cells. Conditions: 0 to 1000 nM, 4 days. The protocol:
as §7, §8, §9, §10, §11, §12, §13
(Tetrazolium dyes change colour on reduction, which living cells bring about.)

Regarding `C#CCC(OC(=O)NC1CC(O[C@H]2C[C@](O)(C(=O)CO)Cc3c(O)c4c(c(O)c32)C(=O)c2c(OC)cccc2C4=O)OC(C)C1O)c1ccc(O[C@@H]2OC(CO)[C@H](O)C(O)C2O)c([N+](=O)[O-])c1` (some centres unmarked) [Compound 5], the “internalization by endocytosis (fluorescence of doxorubicin, confocal microscopy)” value in experiment [1] and in experiment [2] was “not internalized in any of the cell lines” in each case. Also, in the experiment with A549 cells, the “toxicity / inhibition of proliferation (in words)” value is reported as “ineffective on the two cell lines”. Also, the “inhibition of proliferation (in words)” value with Hela cells is on record as “ineffective on the two cell lines”.

For the molecule `COc1cccc2c1C(=O)c1c(O)c3c(c(O)c1C2=O)C[C@@](O)(C(=O)CO)C[C@@H]3O[C@H]1C[C@H](N)[C@H](O)[C@H](C)O1` [doxorubicin], the “internalization by endocytosis (fluorescence of doxorubicin, confocal microscopy)” value in experiment [1] and in experiment [2] was “penetrates non-specifically through the membranes of the two cell lines” each time. The “toxicity / inhibition of proliferation (in words)” value in the experiment on A549 cells was “inhibits the proliferation of these two lines”. Moreover, in the experiment with Hela cells, the “inhibition of proliferation (in words)” value was “inhibits the proliferation of these two lines”.
